# Target: T1, USP7 (Homo sapiens, UniProt Q93009)
# T1 construct: The USP7 construct was PCR amplified and cloned into a pFLAG-CMV-6a vector (Sigma-Aldrich) with an N-terminal FLAG tag; made in house; host or cells: HEK293T
# Test: USP7 biochemical IC50 assay (fluorescence polarisation, TAMRA labelled peptide linked to ubiquitin via an iso-peptide bond)
# Settings: 30 min pre-incubation of enzyme and compound, read after 2 hr incubation at room temperature, read-out: IC50 range
# How it was run: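 Fluorescence polarisation at 540 nm excitation/590 nm emission, read immediately and after 2 hr at room temperature, following addition of 50 nM TAMRA-labelled iso-peptide ubiquitin substrate.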
# T1 sequence (Q93009 whole entry): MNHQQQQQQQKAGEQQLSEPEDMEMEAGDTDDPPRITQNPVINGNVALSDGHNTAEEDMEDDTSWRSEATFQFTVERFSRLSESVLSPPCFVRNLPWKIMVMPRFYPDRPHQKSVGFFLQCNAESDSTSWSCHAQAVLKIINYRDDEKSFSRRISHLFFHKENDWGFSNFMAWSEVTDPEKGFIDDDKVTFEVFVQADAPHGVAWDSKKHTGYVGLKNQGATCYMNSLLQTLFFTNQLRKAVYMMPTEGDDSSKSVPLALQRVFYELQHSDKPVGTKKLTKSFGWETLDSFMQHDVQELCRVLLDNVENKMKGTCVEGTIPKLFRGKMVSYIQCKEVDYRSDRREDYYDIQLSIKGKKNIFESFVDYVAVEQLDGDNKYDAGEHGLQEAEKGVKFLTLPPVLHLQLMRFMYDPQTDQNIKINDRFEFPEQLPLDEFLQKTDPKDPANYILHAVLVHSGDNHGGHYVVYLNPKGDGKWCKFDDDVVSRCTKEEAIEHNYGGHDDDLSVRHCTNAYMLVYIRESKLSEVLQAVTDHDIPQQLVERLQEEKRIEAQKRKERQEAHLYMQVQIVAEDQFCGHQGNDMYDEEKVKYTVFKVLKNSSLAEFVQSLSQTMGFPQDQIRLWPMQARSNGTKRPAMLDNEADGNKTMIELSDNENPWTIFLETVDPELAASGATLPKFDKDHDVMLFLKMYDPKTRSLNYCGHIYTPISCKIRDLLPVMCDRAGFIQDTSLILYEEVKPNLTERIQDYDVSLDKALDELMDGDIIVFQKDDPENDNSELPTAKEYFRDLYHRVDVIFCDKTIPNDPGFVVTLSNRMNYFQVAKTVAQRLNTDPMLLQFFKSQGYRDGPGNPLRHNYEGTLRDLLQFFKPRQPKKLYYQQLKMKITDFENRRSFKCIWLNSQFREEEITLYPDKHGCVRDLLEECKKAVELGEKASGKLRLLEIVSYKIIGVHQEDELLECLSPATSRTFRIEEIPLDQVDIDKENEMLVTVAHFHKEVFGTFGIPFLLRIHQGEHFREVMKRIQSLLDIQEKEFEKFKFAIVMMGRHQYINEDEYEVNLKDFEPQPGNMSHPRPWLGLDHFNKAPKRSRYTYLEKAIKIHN
row,IC50,Structure (SMILES)
1,1 to 10 µM,"N#CN1Cc2nc(NCc3cccnc3)nc(-c3ccccc3)c2C1 [Example 118, 4-phenyl-2-((pyridin-3-ylmethyl)amino)-5,7-dihydro-6H-pyrrolo[3,4-d]pyrimidine-6-carbonitrile]"
2,1 to 10 µM,"N#CN1Cc2nc(NCc3cncs3)nc(-c3ccccc3)c2C1 [Example 119, 4-phenyl-2-((thiazol-5-ylmethyl)amino)-5,7-dihydro-6H-pyrrolo[3,4-d]pyrimidine-6-carbonitrile]"
3,1 to 10 µM,"N#CN1Cc2nc(NCCO)nc(-c3ccccc3)c2C1 [Example 120, 2-((2-hydroxyethyl)amino)-4-phenyl-5,7-dihydro-6H-pyrrolo[3,4-d]pyrimidine-6-carbonitrile]"
4,10 to 30 µM,"N#CN1Cc2nc(NCc3ccco3)nc(-c3ccccc3)c2C1 [Example 121, 2-((furan-2-ylmethyl)amino)-4-phenyl-5,7-dihydro-6H-pyrrolo[3,4-d]pyrimidine-6-carbonitrile]"
5,1 to 10 µM,"N#CN1Cc2nc(NCCCn3ccnc3)nc(-c3ccccc3)c2C1 [Example 122, 2-((3-(1H-imidazol-1-yl)propyl)amino)-4-phenyl-5,7-dihydro-6H-pyrrolo[3,4-d]pyrimidine-6-carbonitrile]"
6,10 to 30 µM,"CCNc1nc2c(c(-c3ccccc3C(N)=O)n1)CN(C#N)C2 [Example 123, 2-(6-cyano-2-(ethylamino)-6,7-dihydro-5H-pyrrolo[3,4-c]pyrimidin-4-yl)benzamide]"
7,1 to 10 µM,"CN1CCOC(CNc2nc3c(c(-c4ccccc4)n2)CN(C#N)C3)C1 (centres unmarked) [Example 124, 2-(((4-methylmorpholin-2-yl)methyl)amino)-4-phenyl-5,7-dihydro-6H-pyrrolo[3,4-d]pyrimidine-6-carbonitrile]"
8,1 to 10 µM,"CN1CCCC(CNc2nc3c(c(-c4ccccc4)n2)CN(C#N)C3)C1 (centres unmarked) [Example 125, 2-(((1-methylpiperidin-3-yl)methyl)amino)-4-phenyl-5,7-dihydro-6H-pyrrolo[3,4-d]pyrimidine-6-carbonitrile]"
9,1 to 10 µM,"Cn1nccc1CNc1nc2c(c(-c3ccccc3)n1)CN(C#N)C2 [Example 126, 2-(((1-methyl-1H-pyrazol-5-yl)methyl)amino)-4-phenyl-5,7-dihydro-6H-pyrrolo[3,4-d]pyrimidine-6-carbonitrile]"
10,1 to 10 µM,"CN1CCC(CNc2nc3c(c(-c4ccccc4)n2)CN(C#N)C3)C1 (centres unmarked) [Example 127, 2-(((1-methylpyrrolidin-3-yl)methyl)amino)-4-phenyl-5,7-dihydro-6H-pyrrolo[3,4-d]pyrimidine-6-carbonitrile]"
11,1 to 10 µM,"CC(=O)Nc1nc2c(c(N3CCc4ccccc4C3)n1)CN(C#N)C2 [Example 128, N-(6-cyano-4-(3,4-dihydroisoquinolin-2(1H)-yl)-6,7-dihydro-5H-pyrrolo[3,4-d]pyrimidin-2-yl)acetamide]"
12,10 to 30 µM,"N#CN1Cc2nc(NC(=O)C3CNC(=O)C3)nc(-c3ccccc3)c2C1 (centres unmarked) [Example 129, N-(6-cyano-4-phenyl-6,7-dihydro-5H-pyrrolo[3,4-c]pyrimidin-2-yl)-5-oxopyrrolidine-3-carboxamide]"
13,10 to 30 µM,"COc1ccc(-c2nc3c(c(N4CCCC4)n2)CN(C#N)C3)cc1 [Example 130, 2-(4-methoxyphenyl)-4-(pyrrolidin-1-yl)-5,7-dihydro-6H-pyrrolo[3,4-c]pyrimidine-6-carbonitrile]"
14,10 to 30 µM,"N#CN1Cc2nc(-c3ccccc3)nc(N3CCCC3C(N)=O)c2C1 (centres unmarked) [Example 131, 1-(6-cyano-2-phenyl-6,7-dihydro-5H-pyrrolo[3,4-d]pyrimidin-4-yl)pyrrolidine-2-carboxamide]"
15,10 to 30 µM,"N#CN1Cc2nc(-c3ccccc3)nc(NCC(N)=O)c2C1 [Example 132, 2-((6-cyano-2-phenyl-6,7-dihydro-5H-pyrrolo[3,4-d]pyrimidin-4-yl)amino)acetamide]"
16,10 to 30 µM,"CNC(=O)C1CCCN1c1nc(-c2ccccc2)nc2c1CN(C#N)C2 (centres unmarked) [Example 133, 1-(6-cyano-2-phenyl-6,7-dihydro-5H-pyrrolo[3,4-d]pyrimidin-4-yl)-N-methylpyrrolidine-2-carboxamide]"
17,10 to 30 µM,"Cc1[nH]ncc1-c1nc2c(c(N3CCCC3)n1)CN(C#N)C2 [Example 134, 2-(5-methyl-1H-pyrazol-4-yl)-4-(pyrrolidin-1-yl)-5,7-dihydro-6H-pyrrolo[3,4-d]pyrimidine-6-carbonitrile]"
18,1 to 10 µM,"COc1ccccc1-c1nc2c(c(N3CCCC3)n1)CN(C#N)C2 [Example 135, 2-(2-methoxyphenyl)-4-(pyrrolidin-1-yl)-5,7-dihydro-6H-pyrrolo[3,4-d]pyrimidine-6-carbonitrile]"
19,30 to 100 µM,"COc1cccc(-c2nc3c(c(N4CCCC4)n2)CN(C#N)C3)c1 [Example 136, 2-(3-methoxyphenyl)-4-(pyrrolidin-1-yl)-5,7-dihydro-6H-pyrrolo[3,4-d]pyrimidine-6-carbonitrile]"
20,1 to 10 µM,"N#CN1Cc2nc(-c3cccnc3)nc(N3CCCC3)c2C1 [Example 137, 2-(pyridin-3-yl)-4-(pyrrolidin-1-yl)-5,7-dihydro-6H-pyrrolo[3,4-d]pyrimidine-6-carbonitrile]"
21,1 to 10 µM,"N#CN1Cc2nc(-c3ccccc3C(N)=O)nc(N3CCc4ccccc4C3)c2C1 [Example 138, 2-(6-cyano-4-(3,4-dihydroisoquinolin-2(1H)-yl)-6,7-dihydro-5H-pyrrolo[3,4-d]pyrimidin-2-yl)benzamide]"

row,IC50,Structure (SMILES)
1,1 to 10 µM,"Cc1[nH]ncc1-c1nc2c(c(N3CCc4ccccc4C3)n1)CN(C#N)C2 [Example 139, 4-(3,4-dihydroisoquinolin-2(1H)-yl)-2-(5-methyl-1H-pyrazol-4-yl)-5,7-dihydro-6H-pyrrolo[3,4-d]pyrimidine-6-carbonitrile]"
2,1 to 10 µM,"COc1ccccc1-c1nc2c(c(N3CCc4ccccc4C3)n1)CN(C#N)C2 [Example 140, 4-(3,4-dihydroisoquinolin-2(1H)-yl)-2-(2-methoxyphenyl)-5,7-dihydro-6H-pyrrolo[3,4-d]pyrimidine-6-carbonitrile]"
3,1 to 10 µM,"N#Cc1cccc(-c2nc3c(c(N4CCc5ccccc5C4)n2)CN(C#N)C3)c1 [Example 141, 2-(3-cyanophenyl)-4-(3,4-dihydroisoquinolin-2(1H)-yl)-5,7-dihydro-6H-pyrrolo[3,4-d]pyrimidine-6-carbonitrile]"
4,1 to 10 µM,"Cn1cc(-c2nc3c(c(N4CCc5ccccc5C4)n2)CN(C#N)C3)cn1 [Example 142, 4-(3,4-dihydroisoquinolin-2(1H)-yl)-2-(1-methyl-1H-pyrazol-4-yl)-5,7-dihydro-6H-pyrrolo[3,4-d]pyrimidine-6-carbonitrile]"
5,10 to 30 µM,"Cc1ccccc1-c1nc2c(c(N3CCCC3C(N)=O)n1)CN(C#N)C2 (centres unmarked) [Example 143, 1-(6-cyano-2-(o-tolyl)-6,7-dihydro-5H-pyrrolo[3,4-d]pyrimidin-4-yl)pyrrolidine-2-carboxamide]"
6,10 to 30 µM,"Cc1[nH]ncc1-c1nc2c(c(N3CCCC3C(N)=O)n1)CN(C#N)C2 (centres unmarked) [Example 144, 1-(6-cyano-2-(5-methyl-1H-pyrazol-4-yl)-6,7-dihydro-5H-pyrrolo[3,4-d]pyrimidin-4-yl)pyrrolidine-2-carboxamide]"
7,1 to 10 µM,"N#CN1Cc2nc(-c3cn[nH]c3)nc(N3CCc4ccccc4C3)c2C1 [Example 145, 4-(3,4-dihydroisoquinolin-2(1H)-yl)-2-(1H-pyrazol-4-yl)-5,7-dihydro-6H-pyrrolo[3,4-d]pyrimidine-6-carbonitrile]"
8,< 1 µM,COCCn1cc(-c2nc3c(c(N4CCc5ccccc5C4)n2)CN(C#N)C3)cn1 [Example 146]
9,1 to 10 µM,"Cc1[nH]ncc1-c1nc2c(c(N3CCc4cccnc4C3)n1)CN(C#N)C2 [Example 147, 4-(5,8-dihydro-1,7-naphthyridin-7(6H)-yl)-2-(5-methyl-1H-pyrazol-4-yl)-5,7-dihydro-6H-pyrrolo[3,4-d]pyrimidine-6-carbonitrile]"
10,10 to 30 µM,"CC(=O)Nc1nc2c(c(N3CCCC3)n1)CN(C#N)C2 [Example 148, N-(6-cyano-4-(pyrrolidin-1-yl)-6,7-dihydro-5H-pyrrolo[3,4-d]pyrimidin-2-yl)acetamide]"
11,10 to 30 µM,"N#CN1Cc2nc(Cl)nc(-c3ccc(F)cc3)c2C1 [Example 149, 2-chloro-4-(4-fluorophenyl)-5,7-dihydro-6H-pyrrolo[3,4-d]pyrimidine-6-carbonitrile]"
12,30 to 100 µM,"N#CN1Cc2nc(Cl)nc(-c3ccccc3F)c2C1 [Example 150, 2-chloro-4-(2-fluorophenyl)-5,7-dihydro-6H-pyrrolo[3,4-d]pyrimidine-6-carbonitrile]"
13,1 to 10 µM,"Cc1nc2c(c(-c3ccc(F)cc3)n1)CN(C#N)C2 [Example 151, 4-(4-fluorophenyl)-2-methyl-5,7-dihydro-6H-pyrrolo[3,4-d]pyrimidine-6-carbonitrile]"
14,10 to 30 µM,"N#CN1Cc2cccc(-c3ccccc3C(=O)N3CCCC3)c2C1 [Example 155, 4-(2-(pyrrolidine-1-carbonyl)phenyl)isoindoline-2-carbonitrile]"
15,1 to 10 µM,"Cc1cc(-c2cccc3c2CN(C#N)C3)c(C(N)=O)cc1C#N [Example 156, 5-cyano-2-(2-cyanoisoindolin-4-yl)-4-methylbenzamide]"
16,1 to 10 µM,"N#CN1Cc2cccc(-c3ccccc3C(N)=O)c2C1 [Example 157, 2-(2-cyanoisoindolin-4-yl)benzamide]"
17,1 to 10 µM,"N#CN1Cc2cccc(-c3ccc(F)cc3C(N)=O)c2C1 [Example 158, 2-(2-cyanoisoindolin-4-yl)-5-fluorobenzamide]"
18,1 to 10 µM,"CC(=O)c1ccccc1-c1cccc2c1CN(C#N)C2 [Example 159, 4-(2-acetylphenyl)isoindoline-2-carbonitrile]"
19,1 to 10 µM,"CNS(=O)(=O)c1ccccc1-c1cccc2c1CN(C#N)C2 [Example 160, 2-(2-cyanoisoindolin-4-yl)-N-methylbenzenesulfonamide]"
20,1 to 10 µM,"N#CN1Cc2cccc(-c3ccccc3S(N)(=O)=O)c2C1 [Example 161, 2-(2-cyanoisoindolin-4-yl)benzenesulfonamide]"

# Source: patent publication US10683269B2 (MISSION THERAPEUTICS LIMITED, priority 2016, dated 2020)
